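Grown in 96-well plates, cells were treated for 48 hours with each compound at five concentrations. Insufficient inhibition: endpoint recorded as highest concentration tested. At the GI50, growth is halved. At the TGI there is no net growth.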
What was measured:
Experiment in all cases: NCI anticancer screen, dose series, 48 h
[1] = test system: CAKI-1 renal
[2] = test system: HCC-2998 colon
[3] = test system: HCT-116 colon
[4] = test system: M14 melanoma
[5] = test system: MCF7 breast
[6] = test system: NCI-H226 lung
[7] = test system: RPMI-8226 leukemia
[8] = test system: SF-268 CNS
[9] = test system: U251 CNS
[10] = test system: UACC-257 melanoma

| Structure (SMILES) | GI50 [1] [µM] | TGI [1] [µM] | GI50 [2] [µM] | TGI [2] [µM] | GI50 [3] [µM] | TGI [3] [µM] | GI50 [4] [µM] | TGI [4] [µM] | GI50 [5] [µM] | TGI [5] [µM] | GI50 [6] [µM] | TGI [6] [µM] | GI50 [7] [µM] | TGI [7] [µM] | GI50 [8] [µM] | TGI [8] [µM] | GI50 [9] [µM] | TGI [9] [µM] | GI50 [10] [µM] | TGI [10] [µM] |
| --- | --- | --- | --- | --- | --- | --- | --- | --- | --- | --- | --- | --- | --- | --- | --- | --- | --- | --- | --- | --- |
| COc1cc([C@@H]2c3cc4c(cc3C(O[C@@H]3O[C@@H]5CO[C@@H](c6cccs6)OC5[C@H](O)[C@H]3O)C3COC(=O)[C@@H]32)OCO4)cc(OC)c1O (stereo not given in full) | 0.0997 | 6.98 | 0.109 | 0.446 | 0.0721 | 1.28 | 0.0732 | 0.888 | 0.00975 | 16.5 | 0.0223 | 0.149 | 0.0298 | 1.28 | 0.0693 | 1.54 | 0.0256 | 1.37 | 0.154 | 2.11 |
| Cc1[nH]c(N=Nc2ccccc2)nc1N=Nc1ccccc1 | 1.04 | 3.48 | 4.2 | 29.6 | 3.12 | 27.6 | 2 | 4.49 | 2.73 | 15.3 | 2.7 | 12.4 | 1.17 | 8.38 | 2.45 | 11.5 | 2.83 | > 37.5 | 2.26 | 5.89 |
| CC(C)CSc1nc(Nc2ccccc2)c(C#N)c(-c2ccc(F)cc2)n1 | 0.486 | 2.46 | 13.1 | > 100 | 2.01 | 11.9 | 6 | 21 | 22.8 | > 100 | 3.79 | 20.1 | 5.49 | > 100 | 4.41 | 22.7 | 0.652 | 2.78 | 10.3 | 33.3 |
| COc1cc(Cn2c(-c3ccccc3)cc3c2-c2oncc2CC3)cc(OC)c1OC | 0.566 | > 100 | 2.21 | > 100 | 0.464 | 91.7 | 0.468 | 13.4 | 0.443 | 22.3 | 3.76 | > 100 | 5.43 | > 100 | 5.77 | > 100 | 0.947 | 35.4 | 20.2 | > 100 |
| O=c1[nH]c(=O)n(C2CC(O)C(CS)O2)cc1F (stereo not given) | – | > 100 | – | > 100 | – | > 100 | – | > 100 | – | > 43.5 | – | > 100 | – | > 100 | – | > 100 | – | > 100 | – | > 100 |
| COc1ccc(-c2cc3c(nn2)-c2ccccc2C3=O)cc1 | > 100 | > 100 | > 100 | > 100 | 70.2 | > 100 | > 100 | > 100 | 36.1 | > 100 | > 100 | > 100 | > 100 | > 100 | > 100 | > 100 | > 100 | > 100 | > 100 | > 100 |
| Cn1cc(C2=C(c3cn(C)c4c(N)cccc34)C(=O)NC2=O)c2ccccc21 | 0.857 | > 25 | 6.01 | > 25 | 1.03 | > 20.6 | 2.15 | > 25 | 0.673 | > 20.9 | 3.28 | > 22.1 | 2.44 | 12.5 | 2.86 | > 25 | 1.19 | > 19.2 | 4.76 | > 25 |
| COc1ccc(S(=O)(=O)N(Cc2ccc3c(n2)C=CC(C)(C)O3)C2CCC2)cc1OC | < 0.01 | 0.145 | < 0.01 | 3.79 | < 0.01 | 4.05 | < 0.01 | 0.228 | 0.0169 | > 38.2 | 0.0101 | 3.75 | 0.0331 | 0.163 | < 0.01 | 1.13 | < 0.01 | 0.883 | < 0.0105 | 0.239 |
| Cn1cc(-c2csc(-c3cccc(F)c3)n2)c2cccnc21 | 16.2 | 40.5 | 18.9 | 33.6 | 14.2 | 27.3 | 15.3 | 29.5 | 17.9 | 43.4 | 19.4 | 51.1 | 25.2 | > 100 | 17.3 | 32.1 | 15.5 | 31.8 | 21.8 | 42.6 |
| N#C/C(C(=S)Nc1ccccc1)=C1/NN=C2c3ccccc3C(=O)NN21 | 34.7 | > 100 | 24.1 | > 100 | 29.2 | > 100 | 19.3 | 40.6 | 22.8 | 77.5 | 49.6 | > 100 | 32.3 | > 100 | 35.3 | > 100 | 32.1 | > 100 | 39 | > 100 |
| CC12CCCC(CC(=O)c3[nH]c4ccccc4c31)C2 (stereo not given) | 0.535 | > 78.8 | 1.79 | 24.6 | 0.429 | 18.9 | 0.399 | 17.3 | 0.4 | > 56.7 | 4.23 | 33.3 | 0.656 | 12.7 | 1.94 | > 65.2 | 0.689 | 34.7 | 15.2 | > 100 |
| CN1C(NC(=O)c2ccc(Cl)nc2)=NS(=O)(=O)c2cc(Cl)ccc21 | > 100 | > 100 | > 100 | > 100 | > 100 | > 100 | > 100 | > 100 | > 100 | > 100 | > 100 | > 100 | > 100 | > 100 | > 100 | > 100 | > 100 | > 100 | > 100 | > 100 |
